This note sets out measurements from patent publication US12331051B2 (priority 2021, dated 2025).

pKi: −log10 of the molar value.

Holding throughout (test): Radioligand binding, cell membrane homogenates
Test [1] concerns the target T1, Alpha 2A adrenergic receptor (Homo sapiens, UniProt P08913).
T1 construct: expressed in transfected cells; host or cells: HEK-293
T1 sequence (P08913 1-465): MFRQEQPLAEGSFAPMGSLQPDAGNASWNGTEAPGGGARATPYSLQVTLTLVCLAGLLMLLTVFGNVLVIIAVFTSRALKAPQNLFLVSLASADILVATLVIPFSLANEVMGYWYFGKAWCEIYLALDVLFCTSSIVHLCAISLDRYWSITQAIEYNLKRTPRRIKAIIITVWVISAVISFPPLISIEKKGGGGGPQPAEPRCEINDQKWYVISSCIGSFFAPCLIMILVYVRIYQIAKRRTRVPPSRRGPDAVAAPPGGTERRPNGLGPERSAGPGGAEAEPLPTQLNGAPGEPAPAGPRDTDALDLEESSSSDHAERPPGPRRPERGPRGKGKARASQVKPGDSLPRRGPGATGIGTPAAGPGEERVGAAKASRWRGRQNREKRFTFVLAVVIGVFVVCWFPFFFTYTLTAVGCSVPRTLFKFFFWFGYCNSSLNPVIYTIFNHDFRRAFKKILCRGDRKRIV
As to the method:
(§1) Neuro-receptor binding and functional effects of the “E559 polymorph” was examined by analyzing binding affinity [Ki (nM)], functional agonist activity [EC50 (nM)], and functional antagonist activity [IC50 (nM)] against a panel of key receptors in neurophysiological disorders. Binding and functional assays were performed at “E559 polymorph” concentrations of 0.0003, 0.003, 0.01, 0.03, 0.1, 0.3, 1, and 10 μM. In binding assays, cell membrane homogenates, expressing each receptor target, were incubated with the corresponding radio-ligand in absence or presence of several concentration of the “E559 polymorph” compound. The measurement of binding affinity of the “E559 polymorph” is represented in TABLE XIII by Ki (nM) which was calculated as percent inhibition of the binding of a radioactively labeled reference ligand at each receptor. In functional assays the HEK-293 cells expressing each receptor target were suspended in buffer and distribute in microplates and incubated for 30 minutes at room temperature or 37° C. in the presence of buffer alone (basal control), the reference agonist or antagonist, or the “E559 polymorph. Following incubation, the cells were lysed and the appropriate fluorescent probe (Ca2+ flux, cAMP, or IP1) were added for 60 minutes to measure the fluorescence transfer at the appropriate wavelength using a microplate reader. The cellular agonist effect (EC50) was calculated as a percent of control response to a known reference agonist and the cellular antagonist effect (IC50) was calculated as a percent inhibition of control reference agonist response for each receptor.

Test [2] deals with T2, Alpha 2B adrenergic receptor (Homo sapiens, UniProt P18089).
T2 construct: expressed in transfected cells; host or cells: HEK-293
T2 sequence (P18089 1-450): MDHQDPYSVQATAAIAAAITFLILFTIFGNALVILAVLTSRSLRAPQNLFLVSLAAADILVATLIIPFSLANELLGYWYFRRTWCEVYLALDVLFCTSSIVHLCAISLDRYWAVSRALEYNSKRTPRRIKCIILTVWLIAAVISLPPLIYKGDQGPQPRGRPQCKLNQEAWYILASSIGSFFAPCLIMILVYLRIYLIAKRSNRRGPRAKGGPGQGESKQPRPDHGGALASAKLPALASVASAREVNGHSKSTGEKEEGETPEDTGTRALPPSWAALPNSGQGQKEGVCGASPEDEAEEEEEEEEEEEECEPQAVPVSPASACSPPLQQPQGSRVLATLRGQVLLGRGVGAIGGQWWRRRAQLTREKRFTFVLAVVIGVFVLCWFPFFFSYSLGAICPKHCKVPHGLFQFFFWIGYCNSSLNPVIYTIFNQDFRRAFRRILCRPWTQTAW
As to the method:
as §1

Test [3] has as its target T3, Serotonin 1B receptor (5-HT1BR) (Homo sapiens, UniProt P28222).
T3 construct: expressed in transfected cells; host or cells: HEK-293
Here is the method: as §1

Test [4] deals with T4, Serotonin 2B receptor (5-HT2BR) (Homo sapiens, UniProt P41595).
T4 construct: expressed in transfected cells; host or cells: HEK-293
T4 sequence (P41595 whole entry): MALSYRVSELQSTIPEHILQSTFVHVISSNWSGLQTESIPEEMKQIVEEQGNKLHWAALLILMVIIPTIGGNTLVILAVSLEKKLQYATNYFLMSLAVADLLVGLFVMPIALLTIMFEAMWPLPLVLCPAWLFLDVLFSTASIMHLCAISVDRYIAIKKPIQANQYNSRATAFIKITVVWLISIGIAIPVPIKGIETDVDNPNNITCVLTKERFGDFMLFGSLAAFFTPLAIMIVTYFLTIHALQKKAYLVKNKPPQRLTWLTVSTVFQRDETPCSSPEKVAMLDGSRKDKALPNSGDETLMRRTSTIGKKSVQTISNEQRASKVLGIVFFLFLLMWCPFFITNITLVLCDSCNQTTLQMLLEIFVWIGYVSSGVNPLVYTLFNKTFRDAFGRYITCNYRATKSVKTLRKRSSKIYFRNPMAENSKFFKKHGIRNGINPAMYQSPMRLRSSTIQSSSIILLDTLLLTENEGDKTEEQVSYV
As to the method:
as §1

In test [5] the target is T5, Alpha 2C adrenergic receptor (Homo sapiens, UniProt P18825).
T5 construct: expressed in transfected cells; host or cells: HEK-293
T5 sequence (P18825 1-462): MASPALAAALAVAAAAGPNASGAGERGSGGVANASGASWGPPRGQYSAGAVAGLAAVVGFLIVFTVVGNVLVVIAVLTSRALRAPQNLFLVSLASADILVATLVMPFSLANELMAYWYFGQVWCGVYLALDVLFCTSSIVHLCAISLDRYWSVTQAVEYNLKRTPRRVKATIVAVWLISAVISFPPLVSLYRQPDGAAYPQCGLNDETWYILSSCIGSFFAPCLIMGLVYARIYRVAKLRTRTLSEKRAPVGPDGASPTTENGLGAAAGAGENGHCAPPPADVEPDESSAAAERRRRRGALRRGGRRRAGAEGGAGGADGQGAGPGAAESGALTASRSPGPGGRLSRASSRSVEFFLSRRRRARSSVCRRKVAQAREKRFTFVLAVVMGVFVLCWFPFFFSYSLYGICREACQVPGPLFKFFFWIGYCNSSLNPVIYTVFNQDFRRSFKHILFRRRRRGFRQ
As to the method: as §1

Test [6] deals with T6, Beta 2 adrenergic receptor (Homo sapiens, UniProt P07550).
T6 construct: expressed in transfected cells; host or cells: HEK-293
T6 sequence (P07550 whole entry): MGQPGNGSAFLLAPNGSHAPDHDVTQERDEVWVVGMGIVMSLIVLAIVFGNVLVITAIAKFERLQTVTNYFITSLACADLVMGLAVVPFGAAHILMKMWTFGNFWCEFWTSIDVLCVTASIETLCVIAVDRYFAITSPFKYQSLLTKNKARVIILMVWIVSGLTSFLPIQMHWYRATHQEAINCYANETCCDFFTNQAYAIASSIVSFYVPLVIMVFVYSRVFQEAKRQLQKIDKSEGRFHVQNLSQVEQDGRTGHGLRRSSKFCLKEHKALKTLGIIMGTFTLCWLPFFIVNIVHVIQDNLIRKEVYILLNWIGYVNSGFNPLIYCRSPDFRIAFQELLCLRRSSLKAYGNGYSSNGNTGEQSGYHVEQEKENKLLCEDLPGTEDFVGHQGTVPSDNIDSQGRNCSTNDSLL
As to the method:
as §1

In test [7] the target is T7, Serotonin 1A receptor (5-HT1AR) (Homo sapiens, UniProt P08908).
T7 construct: expressed in transfected cells; host or cells: HEK-293
T7 sequence (P08908 1-422): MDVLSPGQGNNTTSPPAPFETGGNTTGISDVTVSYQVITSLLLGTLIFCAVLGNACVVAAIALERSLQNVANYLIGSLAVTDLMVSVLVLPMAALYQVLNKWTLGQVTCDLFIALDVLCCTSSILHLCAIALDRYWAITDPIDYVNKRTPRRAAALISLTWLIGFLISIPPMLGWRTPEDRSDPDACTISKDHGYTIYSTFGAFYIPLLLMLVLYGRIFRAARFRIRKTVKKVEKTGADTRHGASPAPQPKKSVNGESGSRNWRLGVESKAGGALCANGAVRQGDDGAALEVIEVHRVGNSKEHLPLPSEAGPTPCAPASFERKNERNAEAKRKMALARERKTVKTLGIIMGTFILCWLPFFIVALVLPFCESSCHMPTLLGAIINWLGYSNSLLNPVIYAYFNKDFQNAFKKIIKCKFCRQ
Here is the method: as §1

T3 sequence (P28222 whole entry): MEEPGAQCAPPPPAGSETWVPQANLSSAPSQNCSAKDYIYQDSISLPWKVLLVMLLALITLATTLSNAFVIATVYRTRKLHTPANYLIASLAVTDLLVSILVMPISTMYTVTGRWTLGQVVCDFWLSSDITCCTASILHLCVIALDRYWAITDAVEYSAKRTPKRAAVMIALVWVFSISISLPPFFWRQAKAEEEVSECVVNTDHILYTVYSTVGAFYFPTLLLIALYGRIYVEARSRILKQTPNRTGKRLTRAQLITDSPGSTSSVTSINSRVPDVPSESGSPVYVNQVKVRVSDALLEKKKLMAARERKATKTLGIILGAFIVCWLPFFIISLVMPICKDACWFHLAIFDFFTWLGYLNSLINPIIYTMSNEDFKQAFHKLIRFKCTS

Take `CCN(CC)C(=O)[C@@H]1C=C2c3cccc4[nH]c(Br)c(c34)C[C@H]2N(C)C1` [E559, (5R, 8R)-2-Bromo-9,10-didehydro-N,N-diethyl-6-methylergoline-8-carboxamide hemi-D-tartrate]: the pKi (in general, the negative decadic logarithm of the Ki, by convention in mol/L) in test [1] is 7.99; in test [2] it was 7.57; in test [3] it was 7.11; in test [4], 8.15; in test [5] it was 7.57; in test [6] it was 7.06. Besides, the pKi in test [7] is 8.03.
